Legend:
human SMS1 = biological target: T1, human SMS1 (Homo sapiens, UniProt Q86VZ5); test: SM synthase assay on lysates of SMS1-expressing yeast cells; assay type: biochemical; design: extent of inhibition of SMS1-mediated SM synthesis: dose or concentration left out as unconfirmed
T1 construct: members for which full-length cDNAs could be obtained were cloned into a yeast multicopy, GALL promotor plasmid; His tag (from vector pYES2.1/V5-His-TOPO) (C); made in house; host or cells: Saccharomyces cerevisiae strain IAY11 (unpurified post-nuclear lysate)
T1 sequence (Q86VZ5 1-413): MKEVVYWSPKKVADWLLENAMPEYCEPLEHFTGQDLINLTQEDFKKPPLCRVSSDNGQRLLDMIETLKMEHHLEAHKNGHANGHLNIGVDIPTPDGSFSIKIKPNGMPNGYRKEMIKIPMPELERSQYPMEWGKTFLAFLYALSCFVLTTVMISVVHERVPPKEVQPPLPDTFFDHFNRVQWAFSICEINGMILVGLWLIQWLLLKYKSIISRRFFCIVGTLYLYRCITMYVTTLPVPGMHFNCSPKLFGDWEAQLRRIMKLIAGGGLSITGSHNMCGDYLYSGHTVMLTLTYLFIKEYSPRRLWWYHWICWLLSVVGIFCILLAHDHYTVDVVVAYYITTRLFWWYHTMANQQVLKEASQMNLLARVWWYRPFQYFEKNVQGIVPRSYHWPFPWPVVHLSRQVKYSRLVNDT
Experimental: (§1) CSS-expressing yeast cells were lysed at 100 OD600/ml by bead bashing at 4° C. in RB1 buffer (120 mM K-glutamate, 15 mM KCl, 5 mM NaCl, 2 mM MnCl2, 2 mM MgCl2, 20 mM Hepes-KOH, pH 7.2) containing freshly added protease inhibitors (Holthuis et al., (1998).
(§2) Lysates were centrifuged at 700 g for 10 min at 4° C. and supernatants (0.25 ml per reaction) preincubated with NEM (1 mM) for 10 min at 37° C. The reaction was initiated by addition of 5 nmol of NBD-Cer in 0.1 ml RB1 buffer and incubation continued for 15 min. Lipids were extracted by addition of 1.7 ml chloroform:methanol (1:2.2), dried under N2 and subjected to butanol/water partitioning. Lipids recovered from the butanol phase were separated by one-dimensional TLC for 30 min in solvent I: chloroform/methanol/4.2 M NH4OH (9:7:3, v/v), followed by 30 min in solvent II: chloroform/methanol/acetic acid (45:30:7, v/v). Fluorescent images were recorded on a STORM 860 Imaging Analysis System (Molecular Dynamics, Sunnyvale, Calif.) and analysed with ImageQuant software.

human SMS2 = biological target: T2, human SMS2 (Homo sapiens, UniProt Q8NHU3); test: SM synthase assay on lysates of SMS2-expressing yeast cells; assay type: biochemical
T2 construct: members for which full-length cDNAs could be obtained were cloned into a yeast multicopy, GALL promotor plasmid; His tag (from vector pYES2.1/V5-His-TOPO) (C); made in house; host or cells: Saccharomyces cerevisiae strain IAY11 (unpurified post-nuclear lysate)
T2 sequence (Q8NHU3 1-365): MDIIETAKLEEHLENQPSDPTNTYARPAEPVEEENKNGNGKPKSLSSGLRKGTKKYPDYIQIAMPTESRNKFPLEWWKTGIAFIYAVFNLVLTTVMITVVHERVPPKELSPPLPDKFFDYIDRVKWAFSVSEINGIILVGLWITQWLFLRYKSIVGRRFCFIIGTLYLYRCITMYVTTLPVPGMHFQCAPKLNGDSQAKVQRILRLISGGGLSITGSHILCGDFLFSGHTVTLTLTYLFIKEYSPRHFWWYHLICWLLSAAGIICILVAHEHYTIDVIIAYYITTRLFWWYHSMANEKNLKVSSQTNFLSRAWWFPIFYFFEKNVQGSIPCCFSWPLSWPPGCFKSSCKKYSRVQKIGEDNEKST
Experimental: as §1, §2

Mammalian SM synthase [1] = conditions: Luberto and Hannun, 1998; cited from earlier work
mammalian SM synthase [2] = test: NBD-ceramide incubated with HeLa cell lysates, TLC of reaction products; assay type: biochemical, human; conditions: NEM 1 mM, 30 min at 37° C.
Experimental: (§3) FIG. 3. NEM inhibits yeast-associated SMase but not mammalian SM synthase. (A) TLC separation of reaction products generated when NBD-SM (1.8 μM) was incubated with lysates of exponentially grown yeast cells (20 OD600 cells) in the presence (+) or absence (−) of N-ethylmaleimide (NEM; 1 mM). Reactions were in 0.35 ml RB1 buffer containing 1 μg/ml of IPC synthase inhibitor (aureobasidin A) and incubated for 30 min at 37° C. (B) TLC separation of reaction products generated when NBD-ceramide (NBD-Cer; […]) was incubated with lysates of HeLa cells (1/1: 2×10^6 cells; 1/4: 0.5×10^6 cells) in the presence (+) or absence (−) of NEM (1 mM). Reactions were in 0.35 ml PNS buffer, and incubated for 30 min at 37° C. Lipid extraction and TLC analysis were as described in Materials and methods.

yeast-associated SMase = test: NBD-SM incubated with yeast cell lysates, TLC of reaction products; assay type: biochemical; conditions: NEM 1 mM, NBD-SM 1.8 μM, 30 min at 37° C.
Experimental: as §3

| SMILES | inhibition of SM synthesis (in words) (human SMS1) | extent of inhibition of SMS1-mediated SM synthesis (human SMS1; D609) | inhibition of SM synthesis (in words) (human SMS2) | sensitivity of SMS2 to the drug relative to SMS1 (human SMS2) | sensitivity of mammalian SM synthase (Mammalian SM synthase [1]) | effect on mammalian SM synthase (mammalian SM synthase [2]) | effect on yeast-associated SMases (yeast-associated SMase) |
| --- | --- | --- | --- | --- | --- | --- | --- |
| S=C([S-])OC1CC2CC1C1CCCC21.[K+] (stereo not shown) [D609, O-tricyclo[5.2.1.0^2,6]dec-9-yl dithiocarbonate potassium salt] | inhibited SM synthesis in a dose-dependent manner | 50% | inhibited SM synthesis in a dose-dependent manner | two-fold less sensitive | sensitive |  |  |
| CCN1C(=O)C=CC1=O [NEM, N-ethylmaleimide] |  |  |  |  |  | does not affect | potent inhibitor |
